Laboratory results: article PMC9095593, “On Methods for the Measurement of the Apelin Receptor Ligand Apelin” (Scientific Reports, 2022)
Like-named read-outs stand apart in the source and are kept apart here. Where no end group is shown, it is not given here.

What was measured:
[1] = Stability of spiked synthetic peptides in plasma according to the preanalytical condition (immediately vs 60 min at room temperature); conditions: HPLC-MS/MS; for Degradation after one hour at room temperature: spiked synthetic peptide; for Appearance of apelin-pyr-13 after spiking synthetic apelin-13: after 60 min; for Degradation at the immediate measurement in non-acidified conditions: non-acidified plasma, measured immediately after spiking
Excerpt: We aimed to minimalize degradation after sampling with a preanalytical protocol summarized in Fig. 3, including immediate cooling and rapid processing of samples. […] However, acidification can be applied only after separation by centrifugation of whole blood into a plasma and a cell compartment, because acidification of whole blood would lead to hemolysis and coagulation, rendering the blood samples unsuitable for further measurements. Therefore, we used protease inhibitor cocktail-containing K2EDTA-coated P100 blood tubes and a mechanical plasma separator (366422 BD Biosciences, San Jose, CA, USA)[19]. The aim of the protease inhibitor cocktail is to inactivate proteolytic degradation by enzymes present in whole blood; the mechanical separator prevent contact with cell-bound enzymes, both theoretically limiting enzymatic degradation of apelin during the several minutes between blood collection in the tube and completed plasma separation and acidification.
Figure 3 Overview of preanalytical conditions. Samples were immediately cooled on ice and processed within 1 h. Both standard K2EDTA tubes and P100 prechilled tubes containing a protease inhibitor cocktail and mechanical separator were used. The standard K2EDTA was centrifuged for 10 min 1300 × g at 4 °C, while the P100 tube was centrifuged for 20 min 2500 × g at 4 °C, according to the manufacturers’ instructions. After separation, plasma was untreated or acidified to either pH 2.5 or 4.5 by adding the plasma to low protein-binding tubes pre-filled with either phosphoric acid or formic acid. The plasma samples were stored directly at − 20 °C and transferred within 4 h at − 80 °C.
Spiking of individual peptides was performed on plasma collected in K2EDTA tubes, stored either non-acidified, or acidified to pH 4.5 or pH 2.5 and on plasma collected in P100 tubes, stored either non-acidified, or acidified to pH 4.5 and pH 2.5. The samples were measured both immediately and after 60 min at room temperature, each sample was measured 3 times.

Prolyl carboxypeptidase = conditions: cited from earlier work
Excerpt: (§1) Table 1 Enzymatic processing of apelin. | column: Conversion

Furin (PCSK3) = conditions: cited from earlier work
Excerpt: as §1

[2] = tested on: G-protein-coupled apelin receptor (AR); design: method as in PMID 23872001, PMID 18272843, PMID 29357134; conditions: cited from earlier work
Excerpt: Apelin is expressed as a 77–amino acid precursor, and the C-terminal 17 residues are completely conserved in mammalians. Enzymatic processing (overviewed in Table 1) results in several active C-terminal fragments named apelin-n, specifying that a given isoform has “n” amino acids, all sharing the same 12 C-terminal residues that contain the receptor-binding site (Fig. 1).

[3] = cited from earlier work
Excerpt: However, acidification can be appl ...

[4] = Influence of cooling on ice and P100 protease inhibitor cocktail on peptide stability; conditions: HPLC-MS/MS, measured in triple; for Influence of the P100 tube (protease inhibitor cocktail) on stability: P100 vs K2EDTA, immediately, 30 and 60 min on ice or at room temperature; for Effect of cooling with ice on stability: spiked on K2EDTA and P100 plasma, measured immediately and after 30 and 60 min on ice or at room temperature
Experimental: The samples were measured immediately, and after 30 and 60 min on ice or at room temperature (Fig. 6). All samples were measured in triple.
The samples were measured immediately, or after 30 and 60 min on ice or at room temperature.

Kallikrein = conditions: cited from earlier work
Excerpt: as §1

[5] = K2EDTA plasma acidified to pH 2.5, immediately and after 60 min at room temperature, measured 3 times
[6] = K2EDTA plasma acidified to pH 4.5, immediately and after 60 min at room temperature, measured 3 times
[7] = K2EDTA plasma, non-acidified, measured immediately and after 60 min at room temperature, each sample measured 3 times
[8] = P100 (protease inhibitor cocktail) plasma, non-acidified, immediately and after 60 min at room temperature, measured 3 times
[9] = P100 plasma acidified to pH 2.5, immediately and after 60 min at room temperature, measured 3 times
[10] = P100 plasma acidified to pH 4.5, immediately and after 60 min at room temperature, measured 3 times
[11] = previously described plasma acidification step to pH 4.5

| Compound | Degradation after one hour at room temperature [1, 5] | Degradation after one hour at room temperature [1, 6] | Degradation after one hour at room temperature [1, 7] | Degradation after one hour at room temperature [1, 8] | Degradation after one hour at room temperature [1, 9] | Degradation after one hour at room temperature [1, 10] | Stability in plasma acidified to pH 4.5 [3, 11] | Influence of the P100 tube (protease inhibitor cocktail) on stability [4] | Effect of cooling with ice on stability [4] | Degradation at the immediate measurement in non-acidified conditions [1] | other results |
| --- | --- | --- | --- | --- | --- | --- | --- | --- | --- | --- | --- |
| Apelin-36: synthetic apelin isoform of 36 amino acids, purchased from CPC Scientific / Phoenix Pharmaceuticals (LVQPRGSRNGPGPWQGGRRKFRRQRPRLSHKGPMPF; Apelin-36; UniProt Q9ULZ1 42-77, looked up) | limited degradation | limited degradation | limited degradation | higher degradation | limited degradation | higher degradation | provide stability | negative influence | cooling with ice increases stability |  | Cleavage by prolyl carboxypeptidase (Prolyl carboxypeptidase; similar to ACE-2 effect): Cleaves apelin 36, 17 and pyr-apelin 13; Conversion by furin (PCSK3) (Furin (PCSK3)): directly to apelin 13; Activation of the apelin receptor (AR) [2]: can activate the AR |
| CSCC[C@H](NC(=O)[C@@H]1CCCN1C(=O)CNC(=O)[C@H](CCCCN)NC(=O)[C@H](Cc1cnc[nH]1)NC(=O)[C@H](CO)NC(=O)[C@H](CC(C)C)NC(=O)[C@H](CCCNC(=N)N)NC(=O)[C@@H]1CCCN1C(=O)[C@H](CCCNC(=N)N)NC(=O)[C@H](CCC(N)=O)NC(=O)[C@H](CCCNC(=N)N)NC(=O)[C@H](CCCNC(=N)N)NC(=O)[C@H](Cc1ccccc1)NC(=O)[C@@H](N)CCCCN)C(=O)N1CCC[C@H]1C(=O)N[C@@H](Cc1ccccc1)C(=O)O [Apelin-17] |  |  |  |  |  |  |  |  |  |  | Degradation after one hour at room temperature (pH 2.5): minor degradation; Degradation after one hour at room temperature (pH 4.5): minor degradation; Cleavage by kallikrein (Kallikrein): Cleaves the 3N-terminal amino acids of apelin-17; Cleavage by prolyl carboxypeptidase (Prolyl carboxypeptidase): Cleaves apelin 36, 17 and pyr-apelin 13; Stability in plasma acidified to pH 4.5 ([3]; pH 4.5): provide stability |
| NGPGPWQGGRRKFRRQRPRLSHKGPMPF [Apelin-28] |  |  |  |  |  |  |  |  |  |  | Influence of pH on stability in K2EDTA plasma ([1]; K2EDTA plasma non-acidified vs pH 4.5 vs pH 2.5, 60 min at room temperature): slightly better stability in K2EDTA plasma at pH 4.5 and pH 2.5 than in non-acidified plasma |
| CSCC[C@H](NC(=O)[C@@H]1CCCN1C(=O)CNC(=O)[C@H](CCCCN)NC(=O)[C@H](Cc1cnc[nH]1)NC(=O)[C@H](CO)NC(=O)[C@H](CC(C)C)NC(=O)[C@H](CCCNC(=N)N)NC(=O)[C@@H]1CCCN1C(=O)[C@H](CCCNC(=N)N)NC(=O)[C@@H](N)CCC(N)=O)C(=O)N1CCC[C@H]1C(=O)N[C@@H](Cc1ccccc1)C(=O)O [Apelin-13] | minor degradation | minor degradation | rapid degradation | rapid degradation | minor degradation | minor degradation | provide stability | small added value | cooling with ice increases stability | immediate degradation | Appearance of apelin-pyr-13 after spiking synthetic apelin-13 ([1]; K2EDTA plasma non-acidified): minimal; Appearance of apelin-pyr-13 after spiking synthetic apelin-13 ([1]; K2EDTA plasma pH 2.5): ~25%; Appearance of apelin-pyr-13 after spiking synthetic apelin-13 ([1]; K2EDTA plasma pH 4.5): ~3 × |
| CSCC[C@H](NC(=O)[C@@H]1CCCN1C(=O)CNC(=O)[C@H](CCCCN)NC(=O)[C@H](Cc1c[nH]cn1)NC(=O)[C@H](CO)NC(=O)[C@H](CC(C)C)NC(=O)[C@H](CCCNC(=N)N)NC(=O)[C@@H]1CCCN1C(=O)[C@@H](N)CCCNC(=N)N)C(=O)N1CCC[C@H]1C(=O)N[C@@H](Cc1ccccc1)C(=O)O [Apelin-12] |  |  |  |  |  |  |  |  | cooling with ice increases stability | immediate degradation | Storage pH giving the best stability in plasma ([1]; plasma non-acidified, pH 4.5 or pH 2.5, 60 min at room temperature): most stable at pH 2.5 |
